Experimental data from patent publication US20250092065A1, “2-(INDAZOL-5-YL)-6-(PIPERIDIN-4-YL)-1,7-NAPHTHYRIDINE DERIVATIVES AND RELATED COMPOUNDS AS MODULATORS FOR SPLICING NUCLEIC ACIDS AND FOR THE TREATMENT OF PROLIFERATIVE DISEASES” (REMIX THERAPEUTICS INC., priority 2022, published 2025).
Like-named read-outs stand apart in the source and are kept apart here.

Columns and labels:
[1] = test system: MYB; assay: HiBiT protein abundance assay, MYB (K562 HiBiT knock-in); type: cell-based, human; settings: HiBiT knock-in K562 cells, 24 hours, top dose 10 μM
Procedure, shortened: (§1)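 Tagged-protein levels were measured as HiBiT/LgBiT luminescence in lysed K562 knock-in cells exposed to serially diluted compound (up to 10 μM final) for 24 hours. A four-parameter logistic regression of control-normalized signal yielded the IC50.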

[2] = test system: SMN2 mRNA; assay: RT-qPCR splicing assay, SMN2 mRNA; type: cell-based, human; settings: Homo sapiens, canonical junction qPCR panel, Table 4; read-out: SMN2 IC50 (decrease in CJ mRNA levels)
Procedure, shortened: (§2)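 A673 or K562 cells treated 24 h at 37 °C with 11-point 3-fold dilutions (top final 10 uM, DMSO ≤0.25%). Lysates analysed by one-step RT-qPCR for canonical (CJ) and alternative-exon (AJ) junctions, normalized to GAPDH, GUSB or PPIA. ΔΔCt vs DMSO, RQ = 2^(−ΔΔCt), expressed as percentage response.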

[3] = test system: K562 cells; assay: Cell Titer Glo 2.0 cell viability (toxicity) assay, K562; settings: 500 cells/well, 72 hours
[4] = test system: HTT; assay: HiBiT protein abundance assay, HTT (K562 HiBiT knock-in); type: cell-based, human; settings: HiBiT knock-in K562 cells, 24 hours, top dose 10 μM
Procedure, shortened: as §1

[5] = test system: Target C; assay: HiBiT protein abundance assay, Target C (K562 HiBiT knock-in); type: cell-based, human; settings: HiBiT knock-in K562 cells, 24 hours, top dose 10 μM
Procedure, shortened: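 K562 HiBiT knock-in cells (10000/well) were treated 24 h at 37° C with a 10-point 3-fold dilution series (top 10 μM final, ≤0.25% DMSO). HiBiT luminescence was read after lytic LgBiT detection. Percent response used unmodified K562 and DMSO-treated knock-in controls, and IC50 came from a four-parameter fit at 50% of untreated.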

[6] = test system: MYB mRNA; assay: RT-qPCR splicing assay, MYB mRNA canonical (CJ) and alternative (AJ) junction; type: cell-based, human; settings: Homo sapiens; for AC50: MYB alternative junction mRNA, read-out: MYB AJ (increase in AJ mRNA, AC50)
Procedure, shortened: as §2

[7] = test system: HTT mRNA; assay: RT-qPCR splicing assay, HTT mRNA canonical (CJ) and alternative (AJ) junction; type: cell-based, human; settings: Homo sapiens; for AC50: HTT alternative junction mRNA, read-out: HTT AJ (increase in AJ mRNA, AC50)
Procedure, shortened: as §2

[8] = MYB canonical junction mRNA, RT-qPCR, read-out: MYB CJ (decrease in CJ mRNA levels, IC50)
[9] = canonical junction qPCR panel, Table 4, read-out: MYB IC50 (decrease in CJ mRNA levels)
[10] = HTT canonical junction mRNA, RT-qPCR, read-out: HTT CJ (decrease in CJ mRNA levels, IC50)
[11] = canonical junction qPCR panel, Table 4, read-out: HTT IC50 (decrease in CJ mRNA levels)

| SMILES | IC50 [1] [nM] | IC50 [2] [nM] | IC50 [4] [nM] | IC50 [5] [nM] | IC50 [6, 8] [nM] | IC50 [6, 9] [nM] | IC50 [7, 10] [nM] | IC50 [7, 11] [nM] | Effect of Exemplary Compounds on Cell Viability, K562 [3] | AC50 ([6]; RT-qPCR) [nM] | AC50 ([7]; RT-qPCR) [nM] |
| --- | --- | --- | --- | --- | --- | --- | --- | --- | --- | --- | --- |
| Cn1cc2cc(-c3ccc4cc(C5CCNCC5)c(F)cc4n3)c(O)cc2n1 [Compound 144] | > 10000 | > 10000 | > 10000 | > 10000 | > 10000 | > 10000 | > 10000 | > 10000 | D (D represents greater than 10 μM in K562 cells) | > 10000 | > 10000 |
| COc1cc2nn(C)cc2cc1-c1ccc2cc(C3CCNCC3)c(F)cc2n1 [Compound 145] | > 10000 | > 10000 | > 10000 | > 10000 | > 10000 | > 10000 | > 10000 | > 10000 | D (D represents greater than 10 μM in K562 cells) | > 10000 | > 10000 |
| Cn1cc2cc(O)c(-c3ccc4nc(C5CCNCC5)ccc4n3)cc2n1 [Compound 146] | 1000 to 10000 | 100 to 1000 | 1000 to 10000 | 1000 to 10000 | 1000 to 10000 | 1000 to 10000 | 1000 to 10000 | 1000 to 10000 | C (C represents 1000-9999 nM) | 1000 to 10000 | 1000 to 10000 |
| Cc1cn2cc(-c3ccc4nc(C5CCNCC5)ccc4n3)c(O)cc2n1 [Compound 149] | 1000 to 10000 | 100 to 1000 | 1000 to 10000 | > 10000 | 1000 to 10000 | 1000 to 10000 | > 10000 | > 10000 | C (C represents 1000-9999 nM) | > 10000 | > 10000 |
| Cc1cn2nc(-c3ccc4nc(C5CCNCC5)ccc4n3)c(O)c2c(C)n1 [Compound 150] | < 100 | < 100 | < 100 | < 100 | < 100 | < 100 | < 100 | < 100 | A (A represents <100 nM) | < 100 | < 100 |
| Cn1cc2cc(-c3ccc4nc(N5CC[C@H](NC(C)(C)C)C5)ccc4n3)c(O)cc2n1 [Compound 154] | < 100 | < 100 | < 100 | < 100 | 100 to 1000 | 100 to 1000 | < 100 | < 100 | A (A represents <100 nM) | < 100 | < 100 |

Further lines, with some results ahead:

| IC50 [1] [nM] | IC50 [2] [nM] | IC50 [4] [nM] | IC50 [5] [nM] | IC50 [6, 8] [nM] | IC50 [6, 9] [nM] | IC50 [7, 10] [nM] | IC50 [7, 11] [nM] | SMILES | Effect of Exemplary Compounds on Cell Viability, K562 [3] | AC50 ([6]; RT-qPCR) [nM] | AC50 ([7]; RT-qPCR) [nM] |
| --- | --- | --- | --- | --- | --- | --- | --- | --- | --- | --- | --- |
| 1000 to 10000 | < 100 | 1000 to 10000 | 1000 to 10000 | 100 to 1000 | 100 to 1000 | 1000 to 10000 | 1000 to 10000 | Cc1nc2cc(O)c(-c3ccc4nc(C5CCNCC5)ccc4n3)cc2s1 [Compound 148] | B (B represents 100-1000 nM) | 100 to 1000 | 1000 to 10000 |
| > 10000 | 1000 to 10000 | > 10000 | > 10000 | > 10000 | > 10000 | > 10000 | > 10000 | c1c[nH]c(-c2ccc3nc(C4CCNCC4)ccc3n2)n1 [Compound 152] | D (D represents greater than 10 μM in K562 cells) | > 10000 | > 10000 |
| < 100 | < 100 | < 100 | < 100 | < 100 | < 100 | < 100 | < 100 | Cn1cc2cc(-c3ccc4nc(N5CC[C@@H](NC(C)(C)C)C5)ccc4n3)c(O)cc2n1 [Compound 153] | B (B represents 100-1000 nM) | < 100 | < 100 |
